This note sets out measurements from ChEMBL document CHEMBL1770053, “Design of novel and potent cPLA2α inhibitors containing an α-methyl-2-ketothiazole as a metabolically stable serine trap” (Bioorg Med Chem Lett, 2011).

The nature of data set [1]: Inhibition of cytosolic PLA2alpha in human differentiated HL60 cells assessed as inhibition of A23187-induced [3H]-arachidonate release. Type of data set: cell-based. The note with it: HL-60.
Data set [2] in a line: Inhibition of recombinant cytosolic PLA2alpha assessed as inhibition of cleavage of soluble fluorogenic substrate.
Another data set has as its system Hepatocyte. Nature of the data set: Intrinsic clearance in rat hepatocytes. Type of data set: ADME, cell-based, Liver.
Data set [3] in a line: Clearance in rat at 2 mg/kg, iv. Also on record: dose 2 mg/kg, route intravenous. The note with it: in vivo. Type of data set: ADME, organism-based.
Data set [4] in a line: Half life in rat plasma at 2 mg/kg, iv. Type of data set: ADME, organism-based. Also on record: dose 2 mg/kg, route intravenous.
Data set [5] in a line: Volume of distribution at steady state in rat at 2 mg/kg, iv. In kind it is ADME, organism-based. Also on record: dose 2 mg/kg, route intravenous. The note with it: in vivo, read-out: Vdss.

Take `O=C(COc1ccc(SCCCCCc2ccccc2)cc1)c1nccs1`: the figures for the concentration for half-maximal inhibition (IC50) in data set [1] and in data set [2] were over 10000 nM and 1000 nM, respectively.
As for `O=C(COc1ccc(SCCCCCc2ccccc2)cc1)c1ncc[nH]1`, in data set [2], the IC50 is over 10000 nM.
Consider `Cn1ccnc1C(=O)COc1ccc(SCCCCCc2ccccc2)cc1`, for which the IC50 in data set [2] is over 10000 nM.
The same measure, in the same setting: for `Cn1c(C(=O)COc2ccc(SCCCCCc3ccccc3)cc2)nc2ccccc21` the value was over 10000 nM; for `O=C(COc1ccc(SCCCCCc2ccccc2)cc1)c1nc2ccccc2s1`, 1000 nM.
Regarding `O=C(O)c1ccc2nc(C(=O)COc3ccc(SCCCCCc4ccccc4)cc3)[nH]c2c1`, the figures for the half-maximal inhibitory concentration (IC50) in data set [1] and in data set [2] were 3700 nM and 2700 nM, respectively.
Consider `O=C(O)COc1ccc2nc(C(=O)COc3ccc(SCCCCCc4ccccc4)cc3)[nH]c2c1`, for which the IC50 in data set [1] and in data set [2] was over 10000 nM in each case.
For the compound `O=C(O)c1ccc2oc(C(=O)COc3ccc(SCCCCCc4ccccc4)cc3)nc2c1`, the values for the IC50 in data set [1] and in data set [2] were 3600 nM and 140 nM, respectively. The CL in the data set with Hepatocyte is 35 µL/min. In data set [3], the clearance is over 200 mL/min/kg. The compound also had a half-life in data set [4] of under 0.2 h.
As for `O=C(O)c1ccc2nc(C(=O)COc3ccc(SCCCCCc4ccccc4)cc3)sc2c1`, the IC50 stood at 1600 nM in data set [1] and 80 nM in data set [2]. Also, in the data set on Hepatocyte, the CL came out at 28 µL/min.
Turning to `COc1ccc2nc(C(=O)COc3ccc(SCCCCCc4ccccc4)cc3)sc2c1`, the IC50 in data set [2] is over 10000 nM.
As for `Cc1nc(C(=O)COc2ccc(SCCCCCc3ccccc3)cc2)sc1C(=O)O`, the IC50 in data set [1] was determined as 1100 nM; in data set [2], 300 nM. The same compound displayed a CL in the data set with Hepatocyte of 11 µL/min.
Take `Cc1nc(C(=O)COc2ccc(SCCCCCc3ccccc3)cc2)sc1CCC(=O)O`: the half-maximal inhibitory concentration (IC50) in data set [1] and in data set [2] was 500 nM each time.
In the case of `Cc1nc(C(=O)COc2ccc(SCCCCCc3ccccc3)cc2)sc1/C=C/C(=O)O`, the IC50 stood at 3000 nM in data set [1] and 4300 nM in data set [2].
As for `Cc1nc(C(=O)COc2ccc(SCCCCCc3ccccc3)cc2)sc1CCCC(=O)O`, the IC50 amounted to 500 nM in data set [1] and 80 nM in data set [2]. The same compound displayed a clearance in data set [3] of 71 mL/min/kg. Besides, the Vd in data set [5] came to 0.4 L/kg. This compound gave a half-life in data set [4] of 0.2 h.
Regarding `O=C(O)CCCc1csc(C(=O)COc2ccc(OCCCCCc3ccccc3)cc2)n1`, the IC50 stood at 6000 nM in data set [1] and 2000 nM in data set [2].
`Cc1nc(C(=O)COc2ccc(SCCCCCc3ccccc3)cc2)sc1CCO`: the values for the IC50 in data set [1] and in data set [2] were 1300 nM and 280 nM, respectively. The same compound returned a CL in the data set with Hepatocyte of 31 µL/min.
The matching figures for `Cc1nc(C(=O)COc2ccc(OCCCCCc3ccccc3)cc2)sc1CCCC(=O)O`: 1200 nM, 240 nM and 20 µL/min.
Regarding `Cc1nc(C(=O)COc2ccc(SCc3ccccc3)cc2)sc1CCCC(=O)O`, the IC50 stood at 2000 nM in data set [1] and 3000 nM in data set [2].
With `CCCCCCCCCCS(=O)(=O)c1ccc(OCC(=O)c2nc(C)c(CCCC(=O)O)s2)cc1`, the results for the IC50 in data set [1] and in data set [2] were 200 nM and 300 nM, respectively. In the data set on Hepatocyte, the CL was found to be 41 µL/min.
As to `CCCCCCCCCCSc1ccc(OCC(=O)c2nc(C)c(CCCC(=O)O)s2)cc1`, the results for the IC50 in data set [1] and in data set [2] were 230 nM and 40 nM, respectively.
For `Cc1nc(C(=O)C(C)Oc2ccc(SCCCCCc3ccccc3)cc2)sc1CCCC(=O)O` (stereo unspecified), the results for the 50% inhibitory concentration (IC50) in data set [1] and in data set [2] were 700 nM and 200 nM, respectively.
For `Cc1nc(C(=O)C(C)(C)Oc2ccc(SCCCCCc3ccccc3)cc2)sc1CCCC(=O)O`, the figures for the IC50 in data set [1] and in data set [2] were over 10000 nM and 6700 nM, respectively.
For `CCC(Oc1ccc(SCc2ccc(Cl)cc2)cc1)C(=O)c1nc(C)c(CCCC(=O)O)s1` (stereo unspecified), the IC50 in data set [2] is 7900 nM.
As to `Cc1nc(C(=O)C(Oc2ccc(SCCCCCc3ccccc3)cc2)C(C)C)sc1CCCC(=O)O` (stereo unspecified), the IC50 in data set [1] was found to be 5600 nM; in data set [2], 4400 nM.
In the case of `Cc1nc(C(=O)C(Oc2ccc(SCCCCCc3ccccc3)cc2)c2ccccc2)sc1CCCC(=O)O` (stereo unspecified), the IC50 in data set [1] came out at 3200 nM; in data set [2] it was 3600 nM.
As for `Cc1nc(C(=O)C(C)Oc2ccc(OCCCCCc3ccccc3)cc2)sc1CCCC(=O)O` (stereo unspecified), the IC50 in data set [1] was determined as 2000 nM; in data set [2], 700 nM. Also, in the data set on Hepatocyte, the CL was 10 µL/min. Besides, in data set [3], the clearance turned out to be 10.5 mL/min/kg. In addition, the Vd in data set [5] was found to be 0.35 L/kg. Further, the half-life in data set [4] was 1.25 h.
On to `Cc1nc(C(=O)C(C)Oc2ccc(SCc3ccc(Cl)cc3)cc2)sc1CCCC(=O)O` (stereo unspecified), for which the IC50 in data set [1] and in data set [2] was 1500 nM throughout. In addition, the clearance in data set [3] amounted to 10.5 mL/min/kg. In data set [5], the Vd was found to be 0.55 L/kg. Moreover, in data set [4], the half-life was 1.15 h.
`Cc1nc(C(=O)[C@H](C)Oc2ccc(SCCCCCc3ccccc3)cc2)sc1CCCC(=O)O`: the IC50 in data set [2] was over 1000 nM.
For the compound `Cc1nc(C(=O)[C@@H](C)Oc2ccc(SCCCCCc3ccccc3)cc2)sc1CCCC(=O)O`, the IC50 in data set [2] amounted to 200 nM. Besides, the CL with Hepatocyte was determined as 8 µL/min.
For the compound `O=C(COc1ccc(SCCCCCc2ccccc2)cc1)COc1ccc(C(=O)O)cc1`, the figures for the IC50 in data set [1] and in data set [2] were 1500 nM and 80 nM, respectively.
